# Read-outs that look alike come from different tables or passages of the source.
# Columns and labels:
# MDA-MB-468 tumors [1] = conditions: 75 mg/kg, reference 100; cited from earlier work
# MDA-MB-468 tumors [2] = experiment: PU-H71 tumor concentration predicted from [^124I]-PU-H71 PET (equation 1a, simulations)
# [3] = as above; conditions: mouse, tumor (MDA-MB-468), 75 mg/kg
# MDA-MB-468 cells = experiment: MDA-MB-468 and other breast cancer cells in vitro: growth inhibition, client depletion, apoptosis
# [4] = tested on: FL5.12 mAKT-transfected cells; experiment: apoptosis in mAKT-transfected FL5.12 cells; type: cell-based
# Source text: FL5.12 was derived as an interleukin-3 (IL-3)-dependent cell line with a functional JAK/STAT pathway and it has characteristic features of an early lymphocytic progenitor. Both the parental cells and the transfected cells express moderate-levels of active AKT and STAT5, as evidenced by AKT phosphorylation on Ser473 and STAT5 phosphorylation on Tyr694, respectively. The level of p-STAT5 but not p-AKT is dependent on the presence of IL-3. Introduction of a constitutively activated, myristoylated form of AKT (mAKT) under the control of a doxycycline (DOX)-inducible promoter further allows for the regulation of p-AKT levels in these cells. All together, these cells are a good isogenic model to evaluate the dependence of HSP90 inhibitor apoptotic sensitivity on activated AKT and STAT5-pathways.
# Cells: Kasumi-1, SKNO-1, MOLM-13, MO-91, HEL, HL-60, THP-1, MV4-11 were grown in RPMI media supplemented with 10 mM HEPES, 4.5 g/L glucose, 1.5 g/L sodium bicarbonate, 1 mM sodium pyruvate, 10% FBS, and 1% penicillin/streptomycin. The stable transfectants of FL5.12 were previously described (18-Karnauskas 2003). In brief, for the generation of FL5.mAKT the myristylated AKT was cloned in the doxycycline inducible vector pRevTRE (Clontech) (this clone is designated mAKT). As a control, cell were transfected with vector alone (this clone is designated Vector). For generation of FL5.mAkt.Bcl-xL, the human Bcl-xL cDNA was cloned into the EcoRI site of the pBabePuro vector, and transfected into FL5.mAkt3 as described (18) (this clone is designated mAKT.Bcl-xL). These lines were cultured as described previously using DME-HG media supplemented with 10 mM HEPES, 10% FBS media containing 1 mg/ml Geneticin (G418) (Sigma #G9516) and 1 or 2 ng/mL of IL-3 (RD Systems #403 ML).
# Apoptosis Assay: Cells were treated for 24, 48 or 72 h with vehicle (DMSO) or inhibitors as indicated. Following staining with Acridine Orange and Ethidium Bromide (1:1 mix of 100 µg/ml), cells were visualized with a fluorescent microscope (Zeiss Axiovert 40 CFL) and counted. Percentage of apoptotic cells was determined from 200-300 cells counted in each group. The percentage of apoptotic cells was calculated as: % Apoptotic cells=(total number of cells with apoptotic nuclei/total number of cells counted)×100.
# Western blot: Cells were grown to 60-70% confluence and treated with inhibitor or vehicle for the indicated times. Protein lysates were prepared in 50 mM Tris pH 7.4, 150 mM NaCl and 1% NP-40 lysis buffer. Protein concentrations were measured using the BCA kit (Pierce) according to the manufacturer's instructions. Protein lysates (10-100 μg) were resolved by SDS-PAGE, transferred onto nitrocellulose membrane and incubated with the indicated primary antibodies. […]
# MDA-MB-468 tumors [5] = experiment: efficacy in MDA-MB-468 xenografts; type: in vivo, mice; conditions: for anti-tumor effect: 75 mg/kg, 5 weeks
# Procedure: Efficacy Studies. Mice (n=5) bearing MDA-MB-468 tumors reaching a volume of 100-150 mm^3 were treated i.p. (i.p.) using different doses and schedules, as indicated. Tumor volume was determined by measurement with Vernier calipers, and tumor volume was calculated as the product of its length×width^2×0.4. Tumor volume was expressed on indicated days as the median tumor volume±SD indicated for groups of mice. Percent (%) tumor growth inhibition values were measured on the final day of study for drug-treated compared with vehicle treated mice and are calculated as 100×{1−[(TreatedFinal day−TreatedDay 1)/(ControlFinal day−ControlDay 1)]}. Tumor regression values were determined by calculating the ratio of median tumor volumes at the time when treatment was initiated to median tumor volume on the final day of study for a given treatment group. Percent (%) tumor regression is 100×[1−(TreatedFinal day/TreatedDay 1)].
smiles,measurement,setting,value
CC(C)NCCCn1c(Sc2cc3c(cc2I)OCO3)nc2c(N)ncnc21 [PU-H71],anti-tumor effect,MDA-MB-468 tumors [1],tumor regression and cures
same,tumor concentration of PU-H71,"MDA-MB-468 tumors [2]; 1 mg/kg, 48 h and beyond",less than 0.05 μM
same,simulated tumor concentration at the time of sacrifice,"MDA-MB-468 tumors [2]; 5 mg/kg 3×week, 24 h after last dose",0.43 µM
same,[PU-H71tumor]avg,"MDA-MB-468 tumors [2]; 75 mg/kg, 1×week",2.88 µM
same,[PU-H71tumor]avg,"MDA-MB-468 tumors [2]; 75 mg/kg, 2×week",5.41 µM
same,[PU-H71tumor]avg,"MDA-MB-468 tumors [2]; 75 mg/kg, 3×week",7.45 µM
same,tumor concentration from PET or biodistribution studies,"MDA-MB-468 tumors [2]; 75 mg/kg, 24 h",5.51 ± 1.78 µM
same,concentration at 24 h,[3],5510 nM
same,concentration at 72 h,[3],2180 ± 1780 nM
same,concentration at 96 h,[3],2180 nM
same,"concentrations resulting in HSP90 inhibition (depletion of Raf-1, Akt)","MDA-MB-468 cells; MDA-MB-468, 24 h",above 0.1 μM
same,concentration required for about 50% of cells undergoing apoptosis,"MDA-MB-468 cells; MDA-MB-468, 48 h",0.5 µM
same,concentration required for about 100% of cells undergoing apoptosis,"MDA-MB-468 cells; MDA-MB-468, 48 h",about 5 μM
same,cells undergoing apoptosis,"MDA-MB-468 cells; MDA-MB-468, >2 μM, 48 h",> 70%
same,apoptotic cells,[4]; p-AKT increased by Dox,50%
same,apoptotic cells,[4]; without Dox,35-40%
same,tumor volume at end of treatment,MDA-MB-468 tumors [5]; 5 mg/kg arm,139±66 mm^3
same,tumor growth inhibition (TGI),"MDA-MB-468 tumors [5]; 5 mg/kg i.p. 3×week, 7 weeks",63%
same,tumor growth inhibition (TGI),"MDA-MB-468 tumors [5]; 25 mg/kg i.p. 3×week, 7 weeks",82%
same,tumor growth inhibition (TGI),"MDA-MB-468 tumors [5]; 50 mg/kg i.p. 3×week, 7 weeks",99%
same,regression,"MDA-MB-468 tumors [5]; 75 mg/kg i.p. 3×week, 7 weeks",100%
same,anti-tumor effect,MDA-MB-468 tumors [5]; 1×week,significant tumor growth inhibition
same,anti-tumor effect,MDA-MB-468 tumors [5]; 2×week,tumor regressions
same,average occupancy of tumor HSP90 sites needed for tumor regression and cure,MDA-MB-468 tumors [5]; averaged over the time of treatment,over 80%
same,average occupied sites that may still lead to partial response,MDA-MB-468 tumors [5]; over the time of treatment,≥ 15%
same,average tumor concentration needed for tumor regression and cure,MDA-MB-468 tumors [5]; over the time of treatment,5 µM
same,average tumor concentration that may still lead to partial response,MDA-MB-468 tumors [5]; over the time of treatment,≥ 0.5 µM

# — patent US12616759B2, “Uses of labeled HSP90 inhibitors” (Sloan-Kettering Institute for Cancer Research, priority 2011, dated 2026)
